According to patent publication US20070286895A1, “WOUND DRESSING” (BRISTOL-MYERS SQUIBB COMPANY, priority 2002, published 2007):

Test system: human whole skin
Assay: Whole skin silver staining study, Franz type diffusion cell (Example 2)
Details: dressing hydrated with 200 μl saline, 24 hours, 32° C., FIG. 1
Procedure: Skin staining studies were carried out using an adaptation of a Franz type horizontal glass diffusion cell as described in Dugard et al, 1984. Whole human skin and wound tissue samples (1 cm^2 discs) were punched out using an Osborne arch punch and placed epidermal side uppermost on the receptor chamber. The donor chamber was then gently placed on top of the receptor chamber. The whole cell was clamped together and placed into a water bath maintained at 32° C.±1° C. The underlying whole skin was bathed in saline.
Individual silver-containing wound dressings (0.64 1 cm^2) were cut out and placed onto the centre of a piece of human whole skin. 200 μl of saline was placed into the donor chamber to hydrate each dressing to mimic a moderately exuding wound. Appoximately 5-10 mg of Flamazine cream was placed onto the skin and gently smoothed over the exposed skin surface by means of a small spatula. […] Each cell was left for 24 hours and images were taken using a Polaroid digital microscope camera.

`O=[N+]([O-])[O-].[Ag+]` [silver nitrate] was tested, and the “silver staining of skin” value was “significant silver staining”.
